For data set [1] the following is noted: cited from earlier work.
Data set [2] deals with phenylepherine-induced contractions of aortic rings. Description: Isolated rat aortic ring relaxation.
Text: The isolated rat aortic ring model tests whether a drug solution reduces the phenylepherine-induced pre-contractions of aortic rings. Briefly, rat aorta was excised and cleansed of fat and adhering tissue. Vessels were then cut into individual ring segments (2-3 mm in width) and suspended from a force-displacement transducer in a tissue bath. […] A passive load of 2 grams was applied to all ring segments and maintained at this level throughout the experiments. At the beginning of each experiment, indomethacin-treated ring segments were depolarized with KCl (70 mM) to determine the maximal contractile capacity of the vessel. Rings were then washed extensively and allowed to equilibrate. For subsequent experiments, vessels were submaximally contracted (50% of KCl response) with phenylephrine (PE) (3×10^−8-10^−7 M).
Briefly, a rat aorta was excised and cleansed of fat and adhering tissue. Vessels were then cut into individual ring segments (2-3 mm in width) and suspended from a force-displacement transducer in a tissue bath. […] A passive load of 2 grams was applied to all ring segments and maintained at this level throughout the experiments. At the beginning of each experiment, indomethacin-treated ring segments were depolarized with KCl (70 mM) to determine the maximal contractile capacity of the vessel. Rings were then washed extensively and allowed to equilibrate. […]
For data set [3] the following is noted: NAL DPI formulation, monodose DPI device, in vitro; cited from earlier work.

Like-named read-outs stand apart in the source and are kept apart here.

The text below walks through data of patent publication US20090196930A1, “AEROSOLIZED NITRITE AND NITRIC OXIDE -DONATING COMPOUNDS AND USES THEREOF” (Aires Pharmaceuticals, Inc., priority 2007, published 2009).

With `O=S(=O)(O)CC(O)CNC(CO)(CO)CO` (centres unmarked) [TAPSO, 2-hydroxy-3-[tris(hydroxymethyl)methylamino]-1-propanesulfonic acid], in data set [1] (exemplary buffers of Table 2), the pKa is reported as 7.6. `OCC(CO)(CO)NCCCNC(CO)(CO)CO` [BIS-TRIS Propane, 1,3-Bis[tris(hydroxymethyl)methylamino]propane]: the pKa in data set [1] (exemplary buffers of Table 2) is recorded as 6.8. Consider `O=S(=O)(O)CCN(CCO)CCO` [BES, N,N-Bis(2-hydroxyethyl)-2-aminoethanesulfonic acid], for which the pKa in data set [1] (exemplary buffers of Table 2) is 7.1. As to `O=S(=O)(O)CCNC1CCCCC1` [CHES, 2-(cyclohexylamino)ethanesulfonic acid], the pKa in data set [1] (exemplary buffers of Table 2) was 9.3.

`O=S(=O)(O)CCN1CCN(CCS(=O)(=O)O)CC1` [PIPES, Piperazine-N,N′-bis(2-ethanesulfonic acid)]: the pKa in data set [1] (exemplary buffers of Table 1) is given as 6.76; in data set [1] (exemplary buffers of Table 2), 6.8. For `CCCc1nn(C)c2c(=O)[nH]c(-c3cc(S(=O)(=O)N4CCN(C)CC4)ccc3OCC)nc12` [Sildenafil], the “reduction in phenylepherine-induced aortic constriction” value in data set [2] (50 nM sildenafil) was around 50%. Also, the EC50 in data set [2] (relaxation of phenylephrine-contracted rat aortic rings, read-out: ED50 (the source's name)) was 50 nM. On to `O=S(=O)(O)CCCN1CCN(CCO)CC1` [EPPS, N-(2-hydroxyethyl)piperazine-N′-(3-propanesulfonic acid)], for which, in data set [1] (exemplary buffers of Table 2), the pKa is listed as 8.0. With L-lysine-N-acetylcysteinate [NAL], the “fine particle fraction (FPF) of the nominal dose” value in data set [3] is listed as “at least 30%”. Consider `O=C(O)CNC(CO)(CO)CO` [Tricine], for which the pKa in data set [1] (exemplary buffers of Table 2) is listed as 8.1. `CC(C)(CO)NCC(O)CS(=O)(=O)O` (centres unmarked) [AMPSO, N-(1,1-dimethyl-2-hydroxyethyl)-3-amino-2-hydroxypropane-sulfonic acid]: the pKa in data set [1] (exemplary buffers of Table 2) is reported as 9.0. Consider `NC(=O)CN(CC(=O)O)CC(=O)O` [ADA, N-(2-ametamino)iminodiacetic acid], for which the pKa is on record as 6.60 in data set [1] (exemplary buffers of Table 1) and 6.6 in data set [1] (exemplary buffers of Table 2).
